Columns and labels:
Format in all cases: cell-based, human
A549 cells [1] = assay: TGF-β1-induced oxidative stress (MDA, Nox4); details: compounds 2 μM, TGF-β1 10 ng/ml 24 h
Description: A549 cells were incubated with compounds k, b, a (2 μM), senexin A (5 μM), or pirfenidone (1 mM) for 1 h, followed by treatment with 10 ng/ml TGF-β1 for a further 24 h. Malondialdehyde (MDA) (FIG. 10A) and Nox4 (FIG. 10B) levels were detected. ***p<0.001 compared to the control group; #p<0.05, ##p<0.01, and ###p<0.001 compared to the TGF-β1-treated group.
An end product of lipid peroxidation, malondialdehyde (MDA), was measured by spectrophotometry at a wavelength of 532 nm using malondialdehyde bis(dimethyl acetal) as the standard as per the assay protocol (Cell Biolabs, USA).

prostate cancer cells [2] = assay: TGF-β1-induced EMT proteins and gene expression, western blot and real-time PCR
Description: Cells were exposed to compound k as indicated concentrations or senexin A (10 μM) in the presence or absence of TGF-β1 (10 ng/mL) for 24 h, the proteins and mRNA levels of E-cadherin, N-cadherin, Snail, vimentin, α-SMA were determined by western blot (A) or real-time PCR (B). Results are shown as the mean±SEM from at least three independent experiments (**p<0.01, ***p<0.001 vs. control group; #p<0.05, ##p<0.01, and ###p<0.001 vs. TGF-β1 treatment group).
Total RNA was isolated from cells using TRIzol reagent (Invitrogen). […] Quantitative PCR was performed using TaqMan One Step RT-PCR mastermix (ABI) in a total reaction volume of 20 μL per reaction, consisting of 10 μL of SYBR green PCR master mix (Applied Biosystems), 5 pmol of each forward/reverse primer, and 2 μL of cDNA. […] The threshold cycle (Ct) in the exponential phase of amplification was detected, the relative mRNA expression level was determined by calculating the ΔΔCt values, and the fold change was expressed as 2^−ΔΔCt. […]
The cells were incubated in lysis buffer for 10 min at 4° C., scraped off, incubated on ice for an additional 10 min and then centrifuged at 17,000 g for 30 min at 4° C. […] Bound antibodies will be measured using an ECL reagent and exposed to a photographic film. […]

[3] = system: STAT1-S727 phosphorylation (CDK8/19 kinase activity); assay: STAT1-S727 phosphorylation western blot in DU145/PC-3 cells
Description: FIGS. 2A-2D show the evaluation of CDK8 inhibition by compound k. […] Cell viability was measured by MTT assay, and the 50% inhibitory concentration (IC50) values were calculated by a sigmoidal dose-response equation. […] Whole-cell lysates were subjected to western blotting with the indicated antibodies. The results are shown as the mean t SEM from at least three independent experiments (*p<0.05, **p<0.01, and ***p<0.001 vs. control group; #p<0.05 vs. relevant control).
The cells were incubated in lysis buffer for 10 min at 4° C., scraped off, incubated on ice for an additional 10 min and then centrifuged at 17,000 g for 30 min at 4° C. Protein samples were electrophoresed on SDS-PAGE gels, transferred to PVDF membranes and blocked with 5% fat-free milk in PBS for 30 min at room temperature. Immunoblotting was performed overnight with primary antibodies in PBS at 4° C., followed by incubation with HRP-conjugated secondary antibodies for 1 h at room temperature. Bound antibodies will be measured using an ECL reagent and exposed to a photographic film. In the immunoprecipitation assay, cell lysates were immunoprecipitated with 1 μg of antibody and A/G agarose beads overnight at 4° C. After washing the precipitated beads three times with 1 mL ice-cold cell lysis buffer, bound immune complexes were separated by 10% SDS-PAGE and analyzed with immunoblotting.

prostate cancer cells [4] = assay: Transwell migration assay; details: both prostate cancer cells
A549 cells [5] = assay: Wound-healing migration assay; details: compounds 2 μM, senexin A 5 μM, pirfenidone 1 mM; TGF-β1 10 ng/mL; 24 or 48 h
Description: A549 cells were incubated in six-well plates until reaching 90% confluency, scratched with a pipette tip, and immediately photographed (0 h). Cells were incubated with or without compound k (2 μM), senexin A (5 μM), or pirfenidone (1 mM) for 1 h, then treated with TGF-β1 (10 ng/mL) and allowed to migrate into the wound area for 24 or 48 h, and photographed. Cell migration into the wound was quantified using ImageJ software; the solid line indicates time zero. Quantitative assessment of the mean number of cells in the denuded zone is expressed as the mean±SEM from three independent experiments. **p<0.01 compared to the control group; ##p<0.01 and ###p<0.001 compared to TGF-β1-treated group.
Cells were seeded in six-well plates and cultured to 90% confluency, at which time the cellular monolayer was wounded with a sterile 10-μL pipette tip and washed with culture medium to remove detached cells. Cells were incubated in the presence or absence of test compounds for 24 h and photographed. The wound closure percentages were subsequently determined using ImageJ software (National Institutes of Health, USA).

DU145 cells = assay: TGF-β1-induced morphology change and wound migration; details: TGF-β1 10 ng/mL
Description: Images of the morphology of cells were taken at ×100 magnification. […] The cells were incubated with or without TGF-β1 (10 ng/mL) and compound k (2.5 and 10 μM), allowed to migrate into the wound area for 48 h and photographed. Cell migration into the wound was quantified using ImageJ software; the white solid line indicates time zero. The quantitative assessment of the mean number of cells in the scratch area is expressed as the mean t SEM from at least three independent experiments (***p<0.001 vs. control group; ##p<0.01 and ###p<0.001 vs. TGF-β1 treatment group). (C) PC-3 cells were incubated with 10 μM compound k/senexin A for 1 h, subsequently treated with TGF-β1 (10 ng/mL) for 24 h and incubated with the indicated antibodies and DAPI. The immunofluorescence images were photographed by a ZEISS ApoTome.2 microscope. Images were taken at 600× magnification.

Q: Which results are given for CNC(=O)c1cc(Oc2ccc(NS(=O)(=O)c3ccc4c(c3)C(=C(C)C)C(=O)N4)c(F)c2)ccn1 [Compound k, 4-(3-Fluoro-4-((2-oxo-3-(propan-2-ylidene)indoline)-5-sulfonamido)phenoxy)-N-methylpicolinamide]?
A: TGF-β1-caused oxidative stress (MDA and Nox4 levels) (A549 cells [1]): markedly reduced; TGF-β1 effects on E-cadherin, N-cadherin, Snail, vimentin (prostate cancer cells [2]; TGF-β1 10 ng/mL, 24 h): attenuated the effects of TGF-β1; EMT protein inhibitory effects compared with senexin A (prostate cancer cells [2]; senexin A 10 μM): more potent; phosphorylation of STAT1 at Ser727 ([3]; DU145/PC-3, 24 h, concentration-dependent): suppressed; phosphorylation of STAT1 at Ser727 in CDK8-overexpressing cells ([3]; pcDNA3 CDK8 HA transfected DU145 and PC-3, concentration-dependent): significantly inhibited; TGF-β1-triggered cell migration (transwell) (prostate cancer cells [4]): significantly inhibited; inhibition of cell migration (A549 cells [5]): potent inhibition; TGF-β1-induced migration (wound closure) (DU145 cells; 2.5 and 10 μM, 48 h): significantly inhibited; TGF-β1-induced morphological transition (DU145 cells; 24 h): appeared to reverse these effects

From patent publication US20250109120A1, “INDOLINE DERIVATIVES FOR TREATMENT AND/OR PREVENTION OF TUMOR OR CELL PROLIFERATIVE AND FIBROSIS DISEASES” (NATIONAL TAIWAN UNIVERSITY, priority 2023, published 2025)
